Experimental data as given in US7482379B2, “Propenoyl hydrazides” (priority 2004, dated 2009).

Experiments:
Cathepsin B = Cathepsin B (Homo sapiens, UniProt P07858); test: Cathepsin B incubation inhibition assay; type: biochemical
Protocol: Papain and Cathepsin B. The incubation method was used to measure the irreversible inhibition of papain and cathepsin B. […] Pseudo first-order inactivation rate constants were obtained from plots of ln vt/vo versus time.

Calpain I = biological target: T1, Calpain I (Sus scrofa, UniProt P35750); test: Calpain I incubation inhibition assay; type: biochemical, porcine; conditions: Table 4, cross reactivity of caspase inhibitors; listed as Cbz-Leu-Glu-Thr-AAsp-trans-CH═CH—COOEt
T1 construct: by the incubation method with calpain I from porcine erythrocytes; from tissue; host or cells: porcine erythrocytes
T1 sequence (P35750 1-714): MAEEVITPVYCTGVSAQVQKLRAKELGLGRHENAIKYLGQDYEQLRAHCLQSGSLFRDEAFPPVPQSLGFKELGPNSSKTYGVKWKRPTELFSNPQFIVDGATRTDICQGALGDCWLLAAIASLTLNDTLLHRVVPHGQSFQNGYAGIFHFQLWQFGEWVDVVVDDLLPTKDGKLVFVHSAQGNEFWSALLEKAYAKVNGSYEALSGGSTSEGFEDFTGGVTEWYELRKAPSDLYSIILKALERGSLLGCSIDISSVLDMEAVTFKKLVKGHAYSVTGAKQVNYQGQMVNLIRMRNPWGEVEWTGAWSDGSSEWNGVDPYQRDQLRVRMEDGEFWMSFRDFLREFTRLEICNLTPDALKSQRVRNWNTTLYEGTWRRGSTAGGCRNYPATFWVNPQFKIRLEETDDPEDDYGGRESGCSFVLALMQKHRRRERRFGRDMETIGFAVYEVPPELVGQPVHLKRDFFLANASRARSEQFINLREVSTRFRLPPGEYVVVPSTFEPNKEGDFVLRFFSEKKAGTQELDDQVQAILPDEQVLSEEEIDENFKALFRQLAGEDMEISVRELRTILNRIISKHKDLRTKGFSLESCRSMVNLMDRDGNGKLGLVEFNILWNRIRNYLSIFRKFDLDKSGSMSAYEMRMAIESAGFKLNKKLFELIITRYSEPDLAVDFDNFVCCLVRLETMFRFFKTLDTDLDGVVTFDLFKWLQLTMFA
T1 sequence (P04574 1-266 partner): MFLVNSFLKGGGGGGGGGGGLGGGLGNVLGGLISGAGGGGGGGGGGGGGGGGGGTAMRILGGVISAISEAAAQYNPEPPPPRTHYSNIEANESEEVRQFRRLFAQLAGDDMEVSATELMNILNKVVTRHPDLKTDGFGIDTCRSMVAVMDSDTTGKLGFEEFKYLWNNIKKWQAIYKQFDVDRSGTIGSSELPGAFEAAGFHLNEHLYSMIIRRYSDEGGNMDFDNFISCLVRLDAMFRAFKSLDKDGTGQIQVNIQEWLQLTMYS
Protocol: Calpain I. Irreversible kinetic assays were performed by the incubation method with calpain I from porcine erythrocytes. […] At various time intervals 50 μL aliquots were withdrawn from the incubation mixture and added to 200 μL enzyme buffer containing Suc-Leu-Tyr-AMC (1.6 mM). […] Pseudo first-order rate constants (kobs) were obtained from plots of ln vt/vo versus time.

Caspase-3 = biological target: T2, Caspase-3 (Homo sapiens, UniProt P42574); test: Caspase-3 progress curve inhibition assay; conditions: second-order rate constant; Ac-DEVD-AMC substrate; Pipes buffer pH 7.2
T2 sequence (P42574 29-175 limits assumed): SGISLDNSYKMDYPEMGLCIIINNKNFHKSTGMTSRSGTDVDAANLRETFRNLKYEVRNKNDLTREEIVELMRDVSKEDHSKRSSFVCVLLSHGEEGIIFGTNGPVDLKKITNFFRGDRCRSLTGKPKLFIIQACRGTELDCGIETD
T2 sequence (P42574 176-277 limits assumed): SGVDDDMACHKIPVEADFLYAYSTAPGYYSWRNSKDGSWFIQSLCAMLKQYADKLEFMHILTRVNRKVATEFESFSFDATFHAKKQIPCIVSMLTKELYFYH

Caspase-9 = biological target: T3, Caspase-9 (Homo sapiens, UniProt P55211); test: Caspase-9 progress curve inhibition assay; conditions: second-order rate constant; Ac-LEHD-AFC substrate; Hepes buffer pH 7.0 with 0.7 M sodium citrate
T3 sequence (P55211 1-315 limits assumed): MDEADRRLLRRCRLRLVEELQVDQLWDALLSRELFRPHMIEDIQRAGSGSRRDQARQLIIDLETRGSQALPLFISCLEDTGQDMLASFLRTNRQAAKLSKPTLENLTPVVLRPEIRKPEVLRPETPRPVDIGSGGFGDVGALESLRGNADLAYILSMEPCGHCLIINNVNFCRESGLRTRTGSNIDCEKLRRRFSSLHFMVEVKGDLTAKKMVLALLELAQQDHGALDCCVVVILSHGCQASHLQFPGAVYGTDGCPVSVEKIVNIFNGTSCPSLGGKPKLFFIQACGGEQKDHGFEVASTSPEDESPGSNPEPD
T3 sequence (P55211 331-416 limits assumed): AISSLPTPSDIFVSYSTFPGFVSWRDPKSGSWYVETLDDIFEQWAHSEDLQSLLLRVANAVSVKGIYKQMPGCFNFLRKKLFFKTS

Gingipain K = Gingipain K (Porphyromonas gingivalis, UniProt Q51817); test: biochemical; type: biochemical; conditions: Table 3; Suc-Ala-Phe-Lys-AMC substrate; pH 8.0
Gingipain R = Gingipain R inhibition; type: biochemical; conditions: Table 3
Clostripain = Clostripain (Hathewaya histolytica, UniProt P09870); conditions: Table 3; Z-Phe-Arg-AMC substrate; pH 7.6
Trypsin = conditions: Table 5, gingipain and clostripain specific inhibitors

Gingipain K, sequence (Q51817 229-1732 limits assumed): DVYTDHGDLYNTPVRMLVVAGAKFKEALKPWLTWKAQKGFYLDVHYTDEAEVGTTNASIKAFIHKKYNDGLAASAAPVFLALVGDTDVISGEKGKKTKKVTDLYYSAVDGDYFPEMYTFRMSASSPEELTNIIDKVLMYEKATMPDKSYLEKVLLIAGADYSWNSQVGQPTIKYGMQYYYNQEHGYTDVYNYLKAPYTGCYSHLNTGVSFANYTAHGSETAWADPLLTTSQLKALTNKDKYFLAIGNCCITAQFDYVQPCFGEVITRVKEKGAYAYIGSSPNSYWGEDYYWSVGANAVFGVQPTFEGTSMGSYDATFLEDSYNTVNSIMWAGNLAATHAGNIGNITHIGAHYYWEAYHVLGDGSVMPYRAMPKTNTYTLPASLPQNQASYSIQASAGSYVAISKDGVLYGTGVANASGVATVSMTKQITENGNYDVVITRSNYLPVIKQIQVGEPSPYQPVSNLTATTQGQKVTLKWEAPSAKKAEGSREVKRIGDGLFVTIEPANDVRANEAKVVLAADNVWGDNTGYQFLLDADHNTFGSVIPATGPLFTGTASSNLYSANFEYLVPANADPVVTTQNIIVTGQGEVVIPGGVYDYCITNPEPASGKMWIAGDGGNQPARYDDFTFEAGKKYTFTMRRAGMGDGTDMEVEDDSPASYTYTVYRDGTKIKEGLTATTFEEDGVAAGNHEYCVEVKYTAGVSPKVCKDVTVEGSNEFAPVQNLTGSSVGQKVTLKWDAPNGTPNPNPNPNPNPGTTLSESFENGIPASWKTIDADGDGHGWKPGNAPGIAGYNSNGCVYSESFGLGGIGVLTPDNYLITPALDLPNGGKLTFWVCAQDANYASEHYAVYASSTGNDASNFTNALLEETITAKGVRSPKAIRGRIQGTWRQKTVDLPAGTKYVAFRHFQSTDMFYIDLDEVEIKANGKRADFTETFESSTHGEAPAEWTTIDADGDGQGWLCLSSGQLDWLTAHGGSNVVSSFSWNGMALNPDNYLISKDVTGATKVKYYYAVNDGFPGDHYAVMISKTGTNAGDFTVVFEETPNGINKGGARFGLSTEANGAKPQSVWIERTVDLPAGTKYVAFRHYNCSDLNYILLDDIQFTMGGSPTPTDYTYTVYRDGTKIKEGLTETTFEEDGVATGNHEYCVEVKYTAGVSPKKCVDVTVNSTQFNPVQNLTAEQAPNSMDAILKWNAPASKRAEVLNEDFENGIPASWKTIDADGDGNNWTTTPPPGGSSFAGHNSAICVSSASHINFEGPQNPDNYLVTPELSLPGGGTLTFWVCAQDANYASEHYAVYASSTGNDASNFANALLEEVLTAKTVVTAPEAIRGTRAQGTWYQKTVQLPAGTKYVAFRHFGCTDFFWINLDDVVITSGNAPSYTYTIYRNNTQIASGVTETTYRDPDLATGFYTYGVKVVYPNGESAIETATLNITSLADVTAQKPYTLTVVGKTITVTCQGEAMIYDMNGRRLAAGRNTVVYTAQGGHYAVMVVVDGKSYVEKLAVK
Clostripain, sequence (P09870 51-526): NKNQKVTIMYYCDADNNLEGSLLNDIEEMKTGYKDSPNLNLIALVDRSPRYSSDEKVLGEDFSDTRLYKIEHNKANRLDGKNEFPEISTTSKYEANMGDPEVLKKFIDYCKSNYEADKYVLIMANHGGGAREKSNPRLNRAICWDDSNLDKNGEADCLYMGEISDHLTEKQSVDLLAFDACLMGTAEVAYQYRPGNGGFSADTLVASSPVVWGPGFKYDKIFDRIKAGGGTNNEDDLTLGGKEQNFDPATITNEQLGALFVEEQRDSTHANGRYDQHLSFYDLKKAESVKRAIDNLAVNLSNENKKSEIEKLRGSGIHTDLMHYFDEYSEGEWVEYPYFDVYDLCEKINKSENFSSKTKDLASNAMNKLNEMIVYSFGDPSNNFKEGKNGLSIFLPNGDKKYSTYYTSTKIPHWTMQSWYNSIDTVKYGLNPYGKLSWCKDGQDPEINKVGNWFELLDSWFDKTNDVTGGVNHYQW

Structure (SMILES)	k2 Cathepsin B (Cathepsin B; Table 4, cross reactivity of caspase inhibitors, listed as Cbz-Leu-Glu-Thr-AAsp-trans-CH═CH—COOEt) [M⁻¹ s⁻¹]	k2 Calpain (Calpain I) [M⁻¹ s⁻¹]	k2 Caspase-3 (Caspase-3)	k2 Caspase-9 (Caspase-9) [M⁻¹ s⁻¹]	k2 Gingipain K (Gingipain K)	k2 Gingipain R (Gingipain R) [M⁻¹ s⁻¹]	kobs/[I] Cathepsin B (Cathepsin B; Table 5, gingipain and clostripain specific inhibitors) [M⁻¹ s⁻¹]	k2 Clostripain (Clostripain)	kobs/[I] Trypsin (Trypsin) [M⁻¹ s⁻¹]
CCOC(=O)/C=C/C(=O)N(CC(=O)O)NC(=O)[C@@H](NC(=O)[C@H](CCC(=O)O)NC(=O)[C@H](CC(C)C)NC(=O)OCc1ccccc1)[C@@H](C)O (relative stereo) [Cbz-Leu-Glu-Thr-AAsp-CH═CH—COOEt, N^2—(N-Berzyloxycarbonylleucylglutamylthreonyl)-N^1-carboxymethyl-N^1-trans-(3-ethoxycarbonylpropenoyl)hydrazine]	<10	<10	5,560 M^−1s^−1	37	–	–	–	–	–
CCOC(=O)C=CC(=O)N(CCCCN)NC(=O)[C@H](CC(C)C)NC(=O)CCc1ccccc1 [PhPr-Leu-ALys-CH═CH—COOEt]	–	–	–	–	3,280,000 M^−1s^−1	289	9	40,750 M^−1s^−1	17
